From patent US6972294B1, “Compounds, their preparation and use” (Novo Nordisk, A/S, priority 1999, dated 2005)

SMILES: CCOC(=O)C(Cc1ccc(OCC=C(c2ccccc2)c2ccncc2)cc1)OCC (stereo not shown) [Example 29, 2-Ethoxy-3-[4-(3-phenyl-3-pyridin-4-yl-allyloxy)-phenyl]-propionic acid ethyl ester]
- melting point: 84 to 87 °C
